Measured values reported in patent US20230346924A1, “MRNA VACCINE COMPRISING ADJUVANT CAPABLE OF KINETIC CONTROL” (PROGENEER INC., priority 2020, published 2023).
“Also recorded” adds a separate entry of the source.

Tests used:
[1] = test system: bone marrow-derived dendritic cells (BMDCs); assay: Degree of antigen presentation in BMDCs treated with mRNA and toll-like receptor agonist (anti-OVA SIINFEKL antibodies); assay type: cell-based, mouse; settings: compared to mRNA only
Description: To confirm the efficacy of the composition for an mRNA vaccine of the present invention, an experiment was performed using OVA mRNA which is widely used as an mRNA vaccine. In further detail, first, CleanCap® OVA mRNA (5 moU, L-7210, TriLink Biotechnologies) and Opti-MEM™ (Reduced Serum Medium, ThermoFisher Scientific) were mixed at a volume ratio of 1:49, and Lipofectamine (Lipofectamine™ 2000 Transfection Reagent, ThermoFisher Scientific) and Opti-MEM® were mixed at a volume ratio of 2:23 as a delivery system, and then the above mixtures were mixed again in a volume ratio of 1:1 and reacted for 5 minutes, thereby preparing an mRNA composition. As toll-like receptor agonists, a toll-like receptor 3 agonist, which is polyinosinic-polycytidylic acid (poly I:C, Sigma-Aldrich), a toll-like receptor 4 agonist, which is Lipopolysaccharide (LPS, Sigma-Aldrich), and a toll-like receptor 7 or 8 agonist which is resiquimod (Biorbyt), were used. Poly I:C was used after being dispersed in phosphate buffered saline (PBS) at a concentration of 0.8 mg/mL, LPS was used after being dispersed in PBS at a concentration of 0.3 μg/mL, R848 was first dissolved in dimethyl sulfoxide (DMSO) at a concentration of 20 mg/mL, and then the dissolved solution was dispersed in PBS to a concentration of 20 μg/mL and used. In the case of treatment with a single toll-like receptor agonist, poly I:C was treated at 40 μg/mL. LPS was treated at 30 ng/mL, or R848 was treated at […], and in the case of treatment with a combination of agonists, 2 μg/mL of poly I:C and 1 μg/mL of R848 were treated, or 2 ng/mL of LPS and 1 μg/mL of R848 were treated, and in both cases, mRNA was treated at 1 μg/mL.
To identify the efficacy of the composition for an mRNA vaccine of the present invention, as cells for experiments, bone marrow-derived dendritic cells (BMDCs), plasmacytoid dendritic cells (pDCs), and T cells isolated from the spleen of an ovalbumin-specific TCR-bearing mouse (OT-1 transgenic mouse: OT-1 mouse) were used. BMDCs and pDCs were obtained from the bone marrow of a laboratory mouse, C57BL/6 (female, Orient Bio). In further detail, a 6-weeks-old mouse was euthanized, the femur and tibia were cut, and then a medium was flushed to extract internal materials. In addition, the extracted materials were treated with a red blood cell lysis buffer (BioLegend) to remove red blood cells, and used. For pDCs, 6-weeks-old C57BL/6 was euthanized, the femur and tibia were cut, and then a medium was flushed to extract internal materials. The extracted materials were then treated with a red blood cell lysis buffer (BioLegend) to remove red blood cells, and only pDCs were isolated using a pDC isolation kit (Plasmacytoid Dendritic Cell Isolation Kit, mouse, MACS Miltenyi Biotec) to be used in the experiments. Spleen cells were used by extracting the spleen from an OT-1 laboratory mouse, physically grinding the spleen to prepare single cells, washing the cells with PBS, and removing red blood cells with a red blood cell lysis buffer. The obtained cells were then seeded in a culture plate (Corning petri dish) with a size of 100 mm×25 mm to 2×10^6 cells, and cultured under conditions of 5% CO2 and 37° C. As a culture medium, a complete RPMI 1640 medium(Gibco) to which 20 ng/mL of a granulocyte-macrophage colony-stimulating factor (GM-CSF, Recombinant Mouse GM-CSF Protein, R&D Systems) was added, was used. […]

[2] = test system: T cells isolated from the spleen of an OT-1 mouse; assay: OT-1 T cell activation in co-culture of treated BMDCs and T cells; assay type: cell-based; settings: BMDC/T cell co-culture
[3] = test system: bone marrow-derived dendritic cells (BMDCs); assay: Cytokine secretion by BMDCs (ELISA: IL-12p70, IL-10, type 1 IFN); assay type: cell-based, mouse
Description: To confirm the efficacy of the composition for an mRNA vaccine of the present invention, an experiment was performed using OVA mRNA which is widely used as an mRNA vaccine. In further detail, first, CleanCap® OVA mRNA (5 moU, L-7210, TriLink Biotechnologies) and Opti-MEM™ (Reduced Serum Medium, ThermoFisher Scientific) were mixed at a volume ratio of 1:49, and Lipofectamine (Lipofectamine™ 2000 Transfection Reagent, ThermoFisher Scientific) and Opti-MEM® were mixed at a volume ratio of 2:23 as a delivery system, and then the above mixtures were mixed again in a volume ratio of 1:1 and reacted for 5 minutes, thereby preparing an mRNA composition. As toll-like receptor agonists, a toll-like receptor 3 agonist, which is polyinosinic-polycytidylic acid (poly I:C, Sigma-Aldrich), a toll-like receptor 4 agonist, which is Lipopolysaccharide (LPS, Sigma-Aldrich), and a toll-like receptor 7 or 8 agonist which is resiquimod (Biorbyt), were used. […]
To confirm the effect of a composition for an mRNA vaccine including a single toll-like receptor in BMDCs, first, BMDCs were treated with a toll-like receptor agonist and modified-mRNA (5-methoxyuridine modified OVA mRNA, TriLink) in the same manner as in Example 12.1, and an antigen presentation degree, amounts of cell surface molecules and levels of cytokines such as interleukin-12p70 (IL-12p70) and interferon were measured. […]

[4] = agonist and mRNA at the same time (0h)
[5] = agonist four hours after mRNA (4h)
[6] = agonist and mRNA at the same time (0h), compared to mRNA alone

Substance	degree of antigen presentation [1, 4]	degree of antigen presentation ([1]; agonist eight hours after mRNA (8h))	degree of antigen presentation [1, 5]	amount of IFN-γ+ T cells ([2]; agonist 4h after mRNA)	level of IL-2 ([2]; agonist 4h after mRNA)	level of secreted IFN-γ ([2]; agonist 4h after mRNA)	amount of IFN-γ+ T cells ([2]; agonist 8h after mRNA)	level of IL-2 ([2]; agonist 8h after mRNA)	level of secreted IFN-γ ([2]; agonist 8h after mRNA)	amount of IFN-γ+ T cells [2, 6]	level of IL-2 [2, 6]	level of secreted IFN-γ [2, 6]	secretion of type 1 IFN [3, 4]	secretion of type 1 IFN [3, 5]
Lipopolysaccharide [LPS]	reduced	increased	increased	–	–	–	–	–	–	–	–	–	–	–
polyinosinic-polycytidylic acid [poly I:C]	remarkably reduced	–	significantly increased	markedly increased	highest; also recorded: markedly increased	markedly increased	markedly increased	markedly increased	markedly increased	remarkably reduced	remarkably reduced	remarkably reduced	markedly increased	reduced
